Where two headings read alike, the source gives them in different places.
Key:
[1] = target: full-length human PLD1 (Homo sapiens (Human), UniProt Q13393); assay: Evaluation of human PLD1 enzyme inhibitory activity (Amplex Red / choline oxidase fluorescence); format: biochemical
In short: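 N-terminally FLAG-tagged full-length human PLD1 (1-1036), expressed in Expi293F and FLAG-purified, incubated with compound (5% DMSO final) and 1,2-diheptanoyl-sn-glycero-3-phosphocholine for 60 min at room temperature in HEPES pH 7.5 buffer. Released choline detected by Amplex Red/choline oxidase/HRP fluorescence.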

[2] = target: full-length human PLD2 (Homo sapiens (Human), UniProt O14939); assay: Evaluation of human PLD2 enzyme inhibitory activity (Amplex Red / choline oxidase fluorescence); format: biochemical
Chain of full-length human PLD2 (O14939 whole entry): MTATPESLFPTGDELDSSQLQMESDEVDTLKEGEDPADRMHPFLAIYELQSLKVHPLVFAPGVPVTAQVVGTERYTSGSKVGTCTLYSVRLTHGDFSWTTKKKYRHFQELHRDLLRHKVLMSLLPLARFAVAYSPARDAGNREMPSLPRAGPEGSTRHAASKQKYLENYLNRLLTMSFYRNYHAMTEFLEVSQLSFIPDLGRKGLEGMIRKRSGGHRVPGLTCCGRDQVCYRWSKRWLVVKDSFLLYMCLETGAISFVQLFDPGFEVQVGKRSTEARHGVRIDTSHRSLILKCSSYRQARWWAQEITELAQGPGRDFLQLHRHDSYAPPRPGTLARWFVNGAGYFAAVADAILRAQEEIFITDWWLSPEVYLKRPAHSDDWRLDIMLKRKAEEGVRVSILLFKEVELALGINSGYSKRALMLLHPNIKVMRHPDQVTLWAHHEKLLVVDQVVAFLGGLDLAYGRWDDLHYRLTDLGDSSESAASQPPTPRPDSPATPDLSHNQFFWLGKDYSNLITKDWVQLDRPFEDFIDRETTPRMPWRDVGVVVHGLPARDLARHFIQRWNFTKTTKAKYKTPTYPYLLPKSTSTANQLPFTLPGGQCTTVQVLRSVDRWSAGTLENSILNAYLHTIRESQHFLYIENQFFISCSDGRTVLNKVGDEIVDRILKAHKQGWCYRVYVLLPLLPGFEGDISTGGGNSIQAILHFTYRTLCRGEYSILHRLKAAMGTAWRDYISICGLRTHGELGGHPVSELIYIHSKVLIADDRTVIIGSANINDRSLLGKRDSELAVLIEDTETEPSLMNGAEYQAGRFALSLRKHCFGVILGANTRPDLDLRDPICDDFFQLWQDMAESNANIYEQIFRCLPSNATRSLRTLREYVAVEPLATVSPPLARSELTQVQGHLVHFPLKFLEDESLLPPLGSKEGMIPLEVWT
In short: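 Enzyme was N-terminal FLAG-tagged full-length human PLD2 (1-933), expressed in Expi293F cells and anti-FLAG purified. Compound (5% DMSO final) was incubated with enzyme (6 nmol/L solution) and 1,2-diheptanoyl-PC (6 mmol/L solution) in HEPES pH 7.5, KCl, EGTA, MgCl2, NP-40, BSA buffer for 60 min at room temperature. Choline was detected with Amplex Red/choline oxidase/HRP.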

[3] = full-length human PLD1 enzyme, read-out: PLD1 IC50
[4] = full-length human PLD2 enzyme, read-out: PLD2 IC50
[5] = 10 μM compound, read-out: PLD1 inhibition rate at 10 μM
[6] = read-out: inhibition rate of PLD1 at 10 μM compound
[7] = 10 μM compound, read-out: PLD2 inhibition rate at 10 μM
[8] = read-out: inhibition rate of PLD2 at 10 μM compound

Chain of full-length human PLD1 (Q13393 other isoform, or with tags, fused parts or gaps): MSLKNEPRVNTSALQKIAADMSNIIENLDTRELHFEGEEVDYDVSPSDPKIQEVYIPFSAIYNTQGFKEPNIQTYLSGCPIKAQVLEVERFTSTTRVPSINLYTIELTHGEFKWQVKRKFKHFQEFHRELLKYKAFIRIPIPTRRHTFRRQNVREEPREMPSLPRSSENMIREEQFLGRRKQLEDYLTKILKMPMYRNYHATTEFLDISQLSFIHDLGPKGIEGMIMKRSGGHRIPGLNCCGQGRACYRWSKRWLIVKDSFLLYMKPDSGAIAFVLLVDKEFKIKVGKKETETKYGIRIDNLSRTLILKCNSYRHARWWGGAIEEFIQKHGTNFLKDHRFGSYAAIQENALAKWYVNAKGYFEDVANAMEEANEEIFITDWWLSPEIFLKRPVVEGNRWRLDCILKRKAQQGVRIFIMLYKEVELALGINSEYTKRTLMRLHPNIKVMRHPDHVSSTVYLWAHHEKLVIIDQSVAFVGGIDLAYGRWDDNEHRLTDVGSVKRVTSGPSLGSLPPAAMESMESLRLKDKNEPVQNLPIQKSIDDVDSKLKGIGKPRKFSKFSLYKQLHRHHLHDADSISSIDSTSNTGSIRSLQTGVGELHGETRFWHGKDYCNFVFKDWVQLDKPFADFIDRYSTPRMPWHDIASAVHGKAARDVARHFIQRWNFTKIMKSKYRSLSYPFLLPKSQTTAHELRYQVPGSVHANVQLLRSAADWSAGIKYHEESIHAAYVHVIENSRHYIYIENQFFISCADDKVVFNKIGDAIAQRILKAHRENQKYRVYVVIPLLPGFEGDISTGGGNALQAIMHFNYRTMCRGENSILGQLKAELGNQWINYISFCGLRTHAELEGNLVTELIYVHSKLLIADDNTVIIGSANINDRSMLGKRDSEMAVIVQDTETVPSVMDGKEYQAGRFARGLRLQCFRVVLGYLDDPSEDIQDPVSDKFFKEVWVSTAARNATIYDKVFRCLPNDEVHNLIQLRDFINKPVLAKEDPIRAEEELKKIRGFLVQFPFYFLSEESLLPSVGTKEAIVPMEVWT

Compound | IC50 [1, 3] [nM] | IC50 [2, 4] [nM] | also measured
COc1cc(C)c(C2=NNC(=O)O[C@]23CC[C@@H](C[C@H](C)NC(=O)NCc2ccccc2F)CC3)cn1 [Example 234] | 247 | 474 | 
C[C@@H](CN1CCC2(CC1)OC(=O)N(C(=O)NC1CC1)N=C2c1ccc(F)cc1Br)NC(=O)NC1CC1 [Example 190] | 642 | 776 | 
CNC(=O)C(=O)N[C@@H](C)C[C@H]1CC[C@]2(CC1)OC(=O)NN=C2c1ccc(Br)cc1 [Example 23] | 39 | 51 | 
CNC(=O)C(=O)N[C@@H](C)C[C@H]1CC[C@]2(CC1)OC(=O)NN=C2c1cc(N2CCOCC2)ccc1C [Example 256] | 27 | < 10 | 
Cc1cc(F)ccc1C1=NNC(=O)O[C@]12CC[C@@H](C[C@H](C)NC(=O)N1CCc3ccccc3C1)CC2 [Example 155] | 14 | < 10 | 
C[C@@H](C[C@H]1CC[C@]2(CC1)OC(=O)NN=C2c1ccc(C#N)cc1Br)NC(=O)N1CCn2nncc2C1 [Example 271] | 18 | < 10 | 
C[C@@H](C[C@H]1CC[C@]2(CC1)OC(=O)NN=C2c1ccc(F)cc1Br)NC(=O)C1CC1 [Example 21] | 307 | 346 | 
CNC(=O)C(=O)N[C@@H](C)C[C@H]1CC[C@]2(CC1)OC(=O)NN=C2c1ccc(OCC(F)(F)F)cc1Br [Example 86] | 13 | < 10 | 
C[C@@H](C[C@H]1CC[C@]2(CC1)OC(=O)NN=C2c1ccc(S(C)(=O)=O)cc1Cl)NC(=O)c1cc2ccccc2o1 [Example 53] | 19 | < 10 | 
C[C@@H](C[C@H]1CC[C@]2(CC1)OC(=O)NN=C2c1ccc(F)cc1Br)NC(=O)N1CCOC2(CC2)C1 [Example 283] | 43 | 48 | 
Cc1ccncc1C1=NNC(=O)O[C@]12CC[C@@H](C[C@H](C)NC(=O)c1cc3ccccc3o1)CC2 [Example 114] | 13 | < 10 | 
C[C@@H](CN1CCC2(CC1)OC(=O)NN=C2c1cc(C#N)ccc1Br)NC(=O)/C=C\C(=O)O [Example 2-047] |  |  | inhibition at 10 µM [1, 5]: 32%; inhibition at 10 µM [1, 6]: 32%; inhibition at 10 µM [2, 7]: 34%; inhibition at 10 µM [2, 8]: 34%
C[C@@H](C[C@H]1CC[C@]2(CC1)OC(=O)NN=C2c1nccn1CC1CC1)NC(=O)c1cc(Cl)no1 [Example 83] | 259 | 221 | 
CNC(=O)C(=O)N[C@@H](C)CN1CCC2(CC1)OC(=O)NN=C2c1ccc(Br)cc1C(F)(F)F [Example 328] | 48 | 34 | 
[2H]C([2H])([2H])NC(=O)C(=O)NC(C)CN1CCC2(CC1)OC(=O)NN=C2c1cc(C#N)ccc1Cl (centres unmarked) [Example 2-008] | 62 | 11 | 
CNC(=O)C(=O)N[C@@H](C)C[C@H]1CC[C@]2(CC1)OC(=O)NN=C2c1ccc(Br)cc1C [Example 161] | 20 | 13 | 
C[C@@H](CN1CCC2(CC1)OC(=O)NN=C2c1ccc(F)cc1Cl)NC(=O)c1cc(C(F)(F)F)[nH]n1 [Example 100] | 41 | 33 | 
CNC(=O)C(=O)N[C@@H](C)C[C@H]1CC[C@]2(CC1)OC(=O)NN=C2c1ccc(OC(F)(F)F)cc1Br [Example 80] | < 10 | < 10 | 
CNC(=O)C(=O)N[C@@H](C)CN1CCC2(CC1)OC(=O)NN=C2c1cc(C(=O)N(C)C)ccc1Br [Example 2-038] | 60 | 11 | 
CNC(=O)C(=O)N[C@@H](C)C[C@H]1CC[C@]2(CC1)OC(=O)NN=C2c1ccc(-c2ccccc2)cc1-c1ccccc1 [Example 73] | 23 | 15 | 
CONC(=O)N[C@@H](C)C[C@H]1CC[C@]2(CC1)OC(=O)NN=C2c1ccc(F)cc1I [Example 208] | 45 | 224 | 
CNC(=O)C(=O)N[C@@H](C)C[C@H]1CC[C@]2(CC1)OC(=O)NN=C2c1ccc(OCC(F)F)cc1Br [Example 85] | 12 | < 10 | 
Cc1cc(C(=O)N[C@@H](C)CN2CCC3(CC2)OC(=O)NN=C3c2ccc(C#N)cc2C(F)(F)F)[nH]n1 [Example 326] | 54 | 38 | 
CNC(=O)C(=O)N[C@@H](C)C[C@H]1CC[C@]2(CC1)OC(=O)NN=C2c1ccc(F)cc1 [Example 6] | 69 | 120 | 
Cc1cc(C(=O)N[C@@H](C)C[C@H]2CC[C@]3(CC2)OC(=O)NN=C3c2ccc(C#N)cc2Cl)[nH]n1 [Example 176] | 29 | 29 | 

Compound | IC50 [1, 3] [nM] | IC50 [2, 4] [nM] | also measured
CCCC(=O)N[C@@H](C)C[C@H]1CC[C@]2(CC1)OC(=O)NN=C2c1ccc(F)cc1Br [Example 42] | 247 | 261 | 
Cc1ccncc1C1=NNC(=O)O[C@]12CC[C@@H](C[C@H](C)NC(=O)c1cc(Cl)no1)CC2 [Example 113] | 17 | 13 | 
C[C@@H](C[C@H]1CC[C@]2(CC1)OC(=O)NN=C2c1ccc(F)cc1Br)NC(=O)C1(O)COC1 [Example 123] | 202 | 502 | 
C[C@@H](CN1CCC2(CC1)OC(=O)NN=C2c1ccc(S(C)(=O)=O)cc1Cl)NC(=O)c1cc2cc(F)ccc2o1 [Example 116] | 43 | 37 | 
CNC(=O)C(=O)N[C@@H](C)C[C@H]1CC[C@]2(CC1)OC(=O)NN=C2c1ccc(C#N)cc1C [Example 152] | 23 | 13 | 
CNC(=O)C(=O)N[C@@H](C)C[C@H]1CC[C@]2(CC1)OC(=O)NN=C2c1cc(C(=O)N2CC(F)(F)C2)ccc1Br [Example 2-057] | 18 | < 10 | 
CNC(=O)C(=O)N[C@@H](C)C[C@H]1CC[C@]2(CC1)OC(=O)NN=C2c1cc(C(F)(F)F)ncc1Br [Example 2-075] | 16 | < 10 | 
CNC(=O)C(=O)N[C@@H](C)C[C@H]1CC[C@]2(CC1)OC(=O)NN=C2c1ccc(C#N)c(C)c1 [Example 205] | 35 | 102 | 
Cc1cc(N2CCOCC2)ccc1C1=NNC(=O)O[C@]12CC[C@@H](C[C@H](C)NC(=O)C(=O)NC1CC1)CC2 [Example 218] | 23 | 13 | 
CNC(=O)C(=O)N[C@@H](C)C[C@H]1CC[C@]2(CC1)OC(=O)NN=C2c1cnc(C)cc1Cl [Example 230, N^1—((S)-1-(cis-5-(4-chloro-6-methylpyridin-3-yl)-2-oxo-1-oxa-3,4-diazaspiro[5.5]undec-4-en-9-yl)propan-2-yl)-N^2-methyloxamide] | 21 | < 10 | 
Cc1cc(C(=O)N[C@@H](C)C[C@H]2CC[C@]3(CC2)OC(=O)NN=C3c2cc(C#N)ccc2Br)[nH]n1 [Example 272] | 15 | < 10 | 
[2H]C([2H])([2H])NC(=O)C(=O)N[C@@H](C)C[C@]1(C#N)CC[C@@]2(CC1)OC(=O)NN=C2c1ccc(F)cc1Br [Example 2-134] |  |  | IC50 ([1]; column 1 of continuation tables 2-12 to 2-14, read-out: human PLD1 enzyme inhibitory activity IC50): 18 nM; IC50 ([2]; column 2 of continuation tables 2-12 to 2-14, read-out: human PLD2 enzyme inhibitory activity IC50): < 10 nM
C[C@@H](C[C@H]1CC[C@]2(CC1)OC(=O)NN=C2c1nccn1CC1CC1)NC(=O)c1cc2ccccc2o1 [Example 84] | 70 | 53 | 
C[C@@H](C[C@H]1CC[C@]2(CC1)OC(=O)NN=C2c1ccc(F)cc1Br)NC(=O)N1CCC2(CC2)C1 [Example 282] | 97 | 146 | 
COc1cc(C)c(C2=NNC(=O)O[C@]23CC[C@@H](C[C@H](C)NC(=O)C(=O)NC2CC2)CC3)cn1 [Example 220] | 42 | 33 | 
Cc1cc(C(=O)N[C@@H](C)C[C@H]2CC[C@]3(CC2)OC(=O)NN=C3c2cnc(N3CC4CCC(C3)O4)cc2Cl)[nH]n1 [Example 247] | 14 | < 10 | 
C[C@@H](C[C@H]1CC[C@]2(CC1)OC(=O)NN=C2c1ccc(F)cc1Br)NC(=O)c1cc2ccccc2o1 [Example 19] | 17 | 10 | 
CNC(=O)C(=O)N[C@@H](C)C[C@H]1CC[C@]2(CC1)OC(=O)NN=C2c1cc(Cl)ccc1Cl [Example 314] | < 10 | < 10 | 
C[C@@H](CN1CCC2(CC1)OC(=O)NN=C2c1ccc(F)cc1Br)NC(=O)NC1CC1 [Example 189] | 130 | 140 | 
CNC(=O)C(=O)N[C@@H](C)C[C@H]1CC[C@]2(CC1)OC(=O)NN=C2c1ccc(F)cc1OC [Example 54] | 20 | < 10 | 
Cc1cc(C(=O)N[C@@H](C)C[C@H]2CC[C@]3(CC2)OC(=O)NN=C3c2ccc(Br)cc2)[nH]n1 [Example 22] | 66 | 49 | 
C[C@@H](C[C@H]1CC[C@]2(CC1)OC(=O)NN=C2c1ccc(F)cc1Cl)NC(=O)C(=O)NC1CC1 [Example 70] | 28 | 20 | 
Cc1cc(C(=O)N[C@@H](C)C[C@H]2CC[C@]3(CC2)OC(=O)NN=C3c2cccc(C#N)c2Br)[nH]n1 [Example 317] | 71 | 65 | 
C[C@@H](C[C@H]1CC[C@]2(CC1)OC(=O)NN=C2c1ccc(F)cc1Br)NC(=O)OC(C)(C)C [Example 34] |  |  | inhibition at 10 µM [1, 5]: 36%; inhibition at 10 µM [1, 6]: 36%; inhibition at 10 µM [2, 7]: 17%; inhibition at 10 µM [2, 8]: 17%
CC(=O)N[C@@H](C)C[C@H]1CC[C@]2(CC1)OC(=O)NN=C2c1ccc(OC(F)F)cc1Br [Example 141] | 141 | 164 | 

— patent US20240101572A1, “DIHYDROOXADIAZINONE COMPOUND AND PHARMACEUTICAL USE THEREOF” (Japan Tobacco Inc., priority 2022, published 2024)
